Laboratory results reported in patent US20230226136A1, “A SYNERGISTIC FORMULATION FOR MANAGEMENT OF RESPIRATORY PATHOGENS INCLUDING CORONAVIRUSES” (priority 2020, published 2023).

Key:
SARS-CoV-2 = experiment: IC-50 plaque assay against SARS-CoV-2; assay type: cell-based; conditions: highest concentration tested 25 μM, FIG. 3
Method: The IC-50 value of Remdesivir was calculated by considering the top and baseline value 100 and 0 respectively.
The IC-50 of the test material was calculated by considering the top and baseline value 100 and 0 respectively.

[1] = Effective concentrations of components of the formulation (tested in 200 uL of the formulation); conditions: for Actual concentrations that were effective in 200 uL, 1:20 dilution: concentration of the component within the formulation at 1:20 dilution
Method: Table 1 depicts the concentration of the biological, non-toxic peptide molecules included in the formulation of the present invention. The synergistic formulation of the present invention is prepared in various combinations of the constituents including protease inhibitor, 9 Arg, ion chelator, FDHIVY, Poly-Lys (L8), Anti-HAT, and vitamin B12. Each combination may include some of the above mentioned constituents depending on the use of the formulation. These concentrations of the components of the synergistic formulations of the present invention have been tested to be effective in 200 μL of the formulation.

| Molecule | reduction in viral load (SARS-CoV-2) | Actual concentrations that were effective in 200 uL, 1:20 dilution [1] | Actual concentrations that were effective in 200 uL, 1:30 dilution ([1]; concentration of the component within the formulation at 1:30 dilution) |
| --- | --- | --- | --- |
| CCC(CC)COC(=O)[C@H](C)N[P@](=O)(OC[C@H]1O[C@@](C#N)(c2ccc3c(N)ncnn23)[C@H](O)[C@@H]1O)Oc1ccccc1 [Remdesivir] | up to 86.84% |  |  |
| Phenylalanine-Aspartic acid-Histidine-Isoleucine-Valine-Tyrosine [FDHIVY] |  | 0.25 µg/mL |  |
| 9-L-Arginine-peptide [9 Arg] |  | 2 mM | 1.3 mM |
